Measurements: US20060115815A1 (priority 2002, published 2006)
pEC50, pIC50: −log10 of the molar value. Where two headings read alike, the source gives them in different places.

Experiments:
GS-7340 Ester Hydrolase = biological target: T1, GS-7340 Ester Hydrolase (Homo sapiens, UniProt P10619); assay: biochemical
T1 construct: from tissue; host or cells: human peripheral blood mononuclear cells (extract and column pools)

[1] = biological target: porcine liver carboxylesterase (PLCE) (Sus scrofa, UniProt Q29550); assay: biochemical; conditions: read-out: Relative Activity (%)
porcine liver carboxylesterase (PLCE), sequence (Q29550 19-566): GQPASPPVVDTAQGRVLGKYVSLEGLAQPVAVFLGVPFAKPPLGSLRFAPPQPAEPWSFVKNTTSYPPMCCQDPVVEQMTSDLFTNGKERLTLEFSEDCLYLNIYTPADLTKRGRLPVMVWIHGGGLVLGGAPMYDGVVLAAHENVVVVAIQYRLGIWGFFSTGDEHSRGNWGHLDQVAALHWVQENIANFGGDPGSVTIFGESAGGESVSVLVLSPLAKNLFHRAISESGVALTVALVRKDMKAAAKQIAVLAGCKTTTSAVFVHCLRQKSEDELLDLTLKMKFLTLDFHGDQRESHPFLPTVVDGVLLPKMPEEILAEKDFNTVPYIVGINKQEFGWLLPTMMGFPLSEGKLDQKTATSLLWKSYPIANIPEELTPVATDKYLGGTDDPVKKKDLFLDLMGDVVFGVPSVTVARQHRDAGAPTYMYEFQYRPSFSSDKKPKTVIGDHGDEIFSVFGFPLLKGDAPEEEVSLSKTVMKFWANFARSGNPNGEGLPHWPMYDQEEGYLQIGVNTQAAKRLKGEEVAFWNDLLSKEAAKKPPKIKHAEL

[2] = biological target: human leukocyte elastase (huLE) (Homo sapiens, UniProt P08246); conditions: 10 µM
human leukocyte elastase (huLE), sequence (P08246 30-267): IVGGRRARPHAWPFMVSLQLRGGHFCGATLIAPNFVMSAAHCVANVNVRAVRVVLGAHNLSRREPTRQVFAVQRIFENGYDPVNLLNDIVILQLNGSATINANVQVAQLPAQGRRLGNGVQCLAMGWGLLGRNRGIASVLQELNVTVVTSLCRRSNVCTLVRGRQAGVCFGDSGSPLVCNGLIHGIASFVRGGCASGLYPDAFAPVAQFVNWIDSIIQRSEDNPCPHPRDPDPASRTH

WT = assay: microbe, parasite or virus in culture; assay type: cell-based, HIV-1; conditions: Human immunodeficiency virus 1, read-out: Cell-based assay (MT-4) EC50 WT
30N82I88D [3] = assay: microbe, parasite or virus in culture; assay type: cell-based, HIV-1; conditions: Human immunodeficiency virus 1, read-out: Cell-based assay (MT-4) EC50 30N82I88D
46I50V [4] = assay: microbe, parasite or virus in culture; assay type: cell-based, HIV-1; conditions: Human immunodeficiency virus 1, read-out: Cell-based assay (MT-4) EC50 46I50V
84V90M [5] = biological target: T2, 84V90M (Human immunodeficiency virus type 1 group M subtype B, UniProt P04585, I572V/L578M); assay: cell-based; set-up: species or system HIV-1
48V82A90M [6] = assay: microbe, parasite or virus in culture; set-up: species or system HIV-1; conditions: Human immunodeficiency virus 1, read-out: Cell-based assay (MT-4) EC50 48V82A90M
48V54V82A [7] = assay: microbe, parasite or virus in culture; assay type: cell-based, HIV-1; conditions: Human immunodeficiency virus 1, read-out: Cell-based assay (MT-4) EC50 48V54V82A
84V90M [8] = biological target: T2, 84V90M; assay: biochemical; set-up: species or system HIV-1
48V54V82S [9] = assay: microbe, parasite or virus in culture; set-up: species or system HIV-1; conditions: Human immunodeficiency virus 1, read-out: Cell-based assay (MT-4) EC50 48V54V82S
[10] = system: recombinant HIV-1 strains with resistance mutations in the protease gene; assay: Cross-resistance profile assay, whole panel of mutant viruses; assay type: cell-based
[11] = system: PBMC in intact human whole blood
[12] = system: recombinant HIV-1 strain, protease 10R/46I/82T/84V
[13] = system: recombinant HIV-1 strain, protease 48V/54V/71V/82S
[14] = system: recombinant HIV-1 strain, protease 10I/48V/71V/82A/90M
[15] = system: recombinant HIV-1 strain, protease 46I/84A
[16] = system: recombinant HIV-1 strain, protease 10I/84V/71V/73S/90M
WT HIV-1 = assay: microbe, parasite or virus in culture; assay type: cell-based
[17] = system: recombinant HIV-1 strain, protease 46I/47V/50V
[18] = system: recombinant HIV-1 strain, protease 10F/46I/71V/82T/90M
[19] = system: mutant HIV-1 with I84V/L90M mutations in the protease gene; assay type: cell-based; conditions: for EC50: MT-4, 84V90M, read-out: Cell-based assay (MT-4) EC50/nM 84V90M
48V82A90M [20] = system: 48V82A90M; set-up: species or system HIV-1; conditions: MT-4, 48V82A90M; read-out: Cell-based assay (MT-4) EC50/nM 48V82A90M
84V90M [21] = biological target: T2, 84V90M; assay: Enzymatic assay, IC50 against 84V90M mutant protease; assay type: biochemical, HIV-1
30N82I88D [22] = system: 30N82I88D; set-up: species or system HIV-1; conditions: MT-4, 30N82I88D; read-out: Cell-based assay (MT-4) EC50/nM 30N82I88D
[23] = biological target: recombinant HIV-1 protease (Human immunodeficiency virus type 1 group M subtype B, UniProt P04585); assay: biochemical; assay type: biochemical; conditions: for IC50: read-out: Enzymatic assay WT IC50/nM
46I50V [24] = system: 46I50V; set-up: species or system HIV-1; conditions: MT-4, 46I50V; read-out: Cell-based assay (MT-4) EC50/nM 46I50V
48V54V82A [25] = system: 48V54V82A; set-up: species or system HIV-1; conditions: MT-4, 48V54V82A; read-out: Cell-based assay (MT-4) EC50/nM 48V54V82A
48V54V82S [26] = system: 48V54V82S; set-up: species or system HIV-1; conditions: MT-4, 48V54V82S; read-out: Cell-based assay (MT-4) EC50/nM 48V54V82S
[27] = system: recombinant HIV-1 strain, protease 54V/71V/82S
[28] = system: recombinant HIV-1 strain, protease 10I/48V/54V/82A
[29] = system: recombinant HIV-1 strain, protease 30N/50S/82I/88D
in vitro = conditions: human
[30] = Human immunodeficiency virus 1, read-out: EC50 [nM] WT HIV-1
[31] = MT-4, WT, read-out: Cell-based assay (MT-4) EC50/nM WT

T1 sequence (P10619 29-326 limits assumed): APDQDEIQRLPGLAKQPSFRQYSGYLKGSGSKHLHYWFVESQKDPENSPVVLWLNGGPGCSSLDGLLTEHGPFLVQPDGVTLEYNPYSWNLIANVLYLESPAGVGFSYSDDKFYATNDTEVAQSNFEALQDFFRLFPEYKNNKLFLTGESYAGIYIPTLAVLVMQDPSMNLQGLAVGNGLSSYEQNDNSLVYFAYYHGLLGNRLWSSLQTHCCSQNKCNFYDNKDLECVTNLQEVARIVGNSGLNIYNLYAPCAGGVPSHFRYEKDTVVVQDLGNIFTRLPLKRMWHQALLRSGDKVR
T1 sequence (P10619 327-480 limits assumed): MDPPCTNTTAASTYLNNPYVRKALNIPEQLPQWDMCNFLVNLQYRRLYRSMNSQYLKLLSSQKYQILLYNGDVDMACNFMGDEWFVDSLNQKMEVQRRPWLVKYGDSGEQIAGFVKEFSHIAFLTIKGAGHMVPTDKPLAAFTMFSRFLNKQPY

In the case of `O=c1oc(Cl)c(Cl)c2ccccc12` [3,4-DCI, 3,4 dichloroisocoumarin, reference compound], the pIC50 (GS-7340 Ester Hydrolase) was 5.40.

Molecule `O=c1oc(Cl)c(Cl)c2ccccc12` [3,4-dichloroisocoumarin] has an activity at 1 µM [1] of 100%, an activity at 10 µM [1] of 100% and an activity at 100 µM [1] of 90%. For the same molecule, the activity at 1000 µM [1] was 20%, the IC50 (GS-7340 Ester Hydrolase; read-out: IC50 (μM) GS-7340 Ester Hydrolase) was 4 µM and the “Relative Activity (%)” value [2] was 25%.

`CCCCN1C(=O)N(Cc2ccc3[nH]nc(N)c3c2)C(Cc2ccccc2)C(O)C(O)C1Cc1ccccc1` (centres unmarked) [CH3 (DMP-851)] showed a pEC50 (WT) of 7.27, a pEC50 (30N82I88D [3]) of 7.16 and a pEC50 (46I50V [4]) of 7.77. The pEC50 (84V90M [5]) was 6.04, the pEC50 (48V82A90M [6]) was 7.66 and the pEC50 (48V54V82A [7]) was 7.48. The pIC50 (84V90M [8]) was 8.03 and the pEC50 (48V54V82S [9]) was 7.52.

With `CCCCOC(=O)C(C)NP(=O)(COc1ccc(CC(NC(=O)OC2COC3OCCC23)C(O)CN(CC(C)C)S(=O)(=O)c2ccc(OC)cc2)cc1)NC(C)C(=O)OCCCC` (centres unmarked) [GS-16503] the “Total No. of Resistant Viruses” value ([10]; of 11 mutant viruses, resistance = 5-fold and higher change in EC50 relative to wild-type) was 0, the “Intracellular Acid Metabolite Concentration” value [11] was 279 ± 47 µM and the “Intracellular Prodrug Concentration” value [11] was 61 ± 40 µM. For the same molecule, the “Intracellular Prodrug and Metabolites Concentration, uM: Acid Metabolite” value [11] was 279 ± 47 µM, the “Intracellular Prodrug and Metabolites Concentration: Prodrug” value [11] was 61 ± 40 µM and the “Intracellular Prodrug and Metabolites Concentration: Total” value [11] was 340 ± 35 µM. The “Metabolism (conversion to acid metabolites), increase at 1 μM vs. 10 μM” value (MT-2 cells) was 3 fold and the “Cell-Associated PI, pmol/mln cells: Prodrug” value (Quiescent PBMC) was 0 pmol/mln cells.

In the case of `CCOC(=O)C(C)OP(=O)(COc1ccc(C[C@H](NC(=O)O[C@H]2CO[C@H]3OCC[C@H]32)[C@H](O)CN(CC(C)C)S(=O)(=O)c2ccc(OC)cc2)cc1)Oc1ccccc1` (some centres unmarked) [GS-17394], the “Intracellular Acid Metabolite Concentration” value [11] was 629 ± 303 µM, the “Intracellular Prodrug Concentration” value [11] was 69 ± 85 µM and the “Intracellular Prodrug and Metabolites Concentration, uM: Acid Metabolite” value [11] was 629 ± 303 µM. For the same molecule, the “Intracellular Prodrug and Metabolites Concentration: Prodrug” value [11] was 69 ± 85 µM, the “Intracellular Prodrug and Metabolites Concentration: Total” value [11] was 698 ± 301 µM and the “Metabolism (conversion to acid metabolites), increase at 1 μM vs. 10 μM” value (MT-2 cells) was “independent”. The “Cell-Associated PI, pmol/mln cells: Prodrug” value (Quiescent PBMC) was 0 pmol/mln cells.

With `Cc1cccc(C)c1OCC(=O)N[C@@H](Cc1ccccc1)[C@@H](O)C[C@H](Cc1ccccc1)NC(=O)[C@H](C(C)C)N1CCCNC1=O` [Lopinavir] the “Total No. of Resistant Viruses” value ([10]; {}) was 6, the “Fold Change in EC50 Relative to WT HIV-1” value [12] was 11 and the “Fold Change in EC50 Relative to WT HIV-1” value [13] was 60. For the same molecule, the “Fold Change in EC50 Relative to WT HIV-1” value [14] was 4.5, the “Fold Change in EC50 Relative to WT HIV-1” value [15] was 9 and the “Fold Change in EC50 Relative to WT HIV-1” value [16] was 11. The EC50 (WT HIV-1; [30]) was 8 nM, the “Fold Change in EC50 Relative to WT HIV-1” value [17] was 19 and the “Fold Change in EC50 Relative to WT HIV-1” value [18] was 7.5.

`CCOP(=O)(COc1ccc(CC2C(O)C(O)C(Cc3ccc(OC)cc3)N(Cc3ccc(O)cc3)C(=O)N2Cc2ccc(O)cc2)cc1)OCC` (centres unmarked) [OCH3, Ph-pOH, OCH2PO3Et2] showed a pEC50 (30N82I88D [3]) of 7.64, a pEC50 (48V82A90M [6]) of 7.32 and a pEC50 (48V54V82S [9]) of 6.97.

For `CCOP(=O)(COc1ccc(CC2C(O)C(O)C(Cc3ccc(OC)cc3)N(Cc3cccnc3)C(=O)N2Cc2cccnc2)cc1)OCC` (centres unmarked) [OCH3, m-pyridine, OCH2PO3Et2], the pEC50 (30N82I88D [3]) was 6.97, the pEC50 (46I50V [4]) was 6.45 and the pEC50 (84V90M [5]) was 6.12. The pEC50 (48V82A90M [6]) was 6.32, the pEC50 (48V54V82A [7]) was 5.99 and the pEC50 (48V54V82S [9]) was 6.01.

In the case of `CCOC(=O)C(C)NP(=O)(COc1ccc(C[C@@H]2[C@H](O)[C@@H](O)[C@@H](Cc3ccccc3)N(Cc3ccccc3)C(=O)N2Cc2ccccc2)cc1)Oc1ccccc1` (some centres unmarked) [R=H, R1=Ph, R2=Mono-Ala-Et], the EC50 [19] was 2940 nM, the EC50 (48V82A90M [20]) was 2450 nM and the IC50 (84V90M [21]) was 50 nM. It also gave an EC50 (WT HIV-1; [31]) of 310 nM, an EC50 (30N82I88D [22]) of 238 nM and an IC50 [23] of 5 nM. The EC50 (46I50V [24]) was 1250 nM, the EC50 (48V54V82A [25]) was 2850 nM and the EC50 (48V54V82S [26]) was 1950 nM.

Molecule `CCOP(=O)(CCNC(=O)Oc1ccc(C[C@@H]2[C@H](O)[C@@H](O)[C@@H](Cc3ccc(OC)cc3)N(Cc3cccc(N)c3)C(=O)N2Cc2cccc(N)c2)cc1)OCC` [R=OCH3, R1=Ph-mNH2, R2=OCONH(CH2)2PO3Et2] has an EC50 [19] of 2260 nM, an EC50 (48V82A90M [20]) of 215 nM and an EC50 (30N82I88D [22]) of 77 nM. For the same molecule, the EC50 (46I50V [24]) was 184 nM, the EC50 (48V54V82A [25]) was 262 nM and the EC50 (48V54V82S [26]) was 214 nM.

In the case of `CCOP(=O)(CNC(=O)Oc1ccc(C[C@@H]2[C@H](O)[C@@H](O)[C@@H](Cc3ccc(OC)cc3)N(Cc3cccc(N)c3)C(=O)N2Cc2cccc(N)c2)cc1)OCC` [R=OCH3, R1=Ph-mNH2, R2=OCONH(CH2)PO3Et2], the EC50 [19] was 2150 nM, the EC50 (48V82A90M [20]) was 185 nM and the IC50 (84V90M [21]) was 85 nM. It also gave an EC50 (WT HIV-1; [31]) of 58 nM, an EC50 (30N82I88D [22]) of 68 nM and an IC50 [23] of 9.9 nM. The EC50 (46I50V [24]) was 104 nM, the EC50 (48V54V82A [25]) was 223 nM and the EC50 (48V54V82S [26]) was 203 nM.

Molecule `CCOP(=O)(CCNC(=O)Oc1ccc(C[C@@H]2[C@H](O)[C@@H](O)[C@@H](Cc3ccc(OC)cc3)N(Cc3ccc(O)cc3)C(=O)N2Cc2ccc(O)cc2)cc1)OCC` [R=OCH3, R1=Ph-pOH, R2=OCONH(CH2)2PO3Et2] has an EC50 [19] of 495 nM, an EC50 (48V82A90M [20]) of 55 nM and an EC50 (WT HIV-1; [31]) of 33 nM. For the same molecule, the EC50 (30N82I88D [22]) was 31 nM, the EC50 (46I50V [24]) was 223 nM and the EC50 (48V54V82S [26]) was 51 nM.

For `CCC[C@@]1(CCc2ccccc2)CC(O)=C([C@H](CC)c2cccc(NS(=O)(=O)c3ccc(C(F)(F)F)cn3)c2)C(=O)O1` [Tipranavir], the “Fold Change in EC50 Relative to WT HIV-1” value [27] was 3.5, the I84V/L90M fold change ([19]; fold difference in EC50, mutant vs. wild type) was “+ (>3 to ≦10)” and the “Total No. of Resistant Viruses” value ([10]; {}) was 1. The “Fold Change in EC50 Relative to WT HIV-1” value [12] was 5, the “Fold Change in EC50 Relative to WT HIV-1” value [13] was 2 and the “Fold Change in EC50 Relative to WT HIV-1” value [14] was 0.3. For the same molecule, the “Fold Change in EC50 Relative to WT HIV-1” value [15] was 1, the EC50 (WT HIV-1; [30]) was 80 nM and the “Fold Change in EC50 Relative to WT HIV-1” value [17] was 0.5. The “Fold Change in EC50 Relative to WT HIV-1” value [28] was 0.4, the “Fold Change in EC50 Relative to WT HIV-1” value [18] was 3 and the “Fold Change in EC50 Relative to WT HIV-1” value [29] was 0.5.

`CCOC(=O)C(C)OP(=O)(COc1ccc(CC(NC(=O)OC2COC3OCCC23)C(O)CN(CC(C)C)S(=O)(=O)c2ccc(OC)cc2)cc1)Oc1ccccc1` (centres unmarked) [drawing 658 R1=OPh R2=Lac-Et] showed a CC50 at 5 days (in vitro) of 5000 to 50000 nM and a Ki ([23]; Ki (pM), class symbols, Table 10) of 10 to 100 pM.
